Experimental findings from patent US5733913A, “6-Aryl pyrido[2,3-d] pyrimidines and naphthyridines for inhibiting protein tyrosine kinase mediated cellular proliferation” (priority 1995, dated 1998) are described below.

Format in all cases: biochemical
Assay [1] deals with V-src kinase. The assay can be described thus: V-src kinase assay. The following applies: at 50 μM. As to the method: (§1) V-src and C-src Kinase Assays
(§2) V-src or C-src kinase is purified from baculovirus infected insect cell lysates using an antipeptide monoclonal antibody directed against the N-terminal 2-17 amino acids. The antibody, covalently linked to 0.65-μm latex beads, is added to a suspension of insect cell lysis buffer comprised of 150 mM NaCl, 50 mM Tris pH 7.5, 1 mM DTT, 1% NP-40, 2 mM EGTA, 1 mM sodium vanadate, 1 mM PMSF, 1 μg/mL each of leupeptin, pepstatin, and aprotinin. Insect cell lysate containing either the c-src or v-src protein is incubated with these beads for 3-4 hours at 4° C. with rotation. At the end of the lysate incubation, the beads are rinsed 3 times in lysis buffer, resuspended in lysis buffer containing 10% glycerol, and frozen. These latex beads are thawed, rinsed three times in assay buffer which is comprised of 40 mM tris pH 7.5, 5 mM MgCl2, and suspended in the same buffer. In a Millipore 96-well plate with a 0.65 μm polyvinylidine membrane bottom are added the reaction components: 10-μL v-src or c-src beads, 10 μL of 2.5 mg/mL poly GluTyr substrate, 5 μM ATP containing 0.2 μCi labeled ^32 P-ATP, 5μL DMSO containing inhibitors or as a solvent control, and buffer to make the final volume 125 μL. The reaction is started at room temperature by addition of the ATP and quenched 10 minutes later by the addition of 125 μL of 30% TCA, 0.1M sodium pyrophosphate for 5 minutes on ice. The plate is then filtered and the wells washed with two 250-μL aliquots of 15% TCA, 0.1M pyrophosphate. The filters are punched, counted in a liquid scintillation counter, and the data examined for inhibitory activity in comparison to a known inhibitor such as erbstatin. The method is described more fully in J. Med. Chem., 37:598-609 (1994).

In assay [2] the target is T1, mouse PDGF-β receptor tyrosine kinase (Mus musculus, UniProt P05622).
T1 construct: a fragment of DNA that codes for the intracellular tyrosine kinase domain; made in house; host or cells: Sf9 insect cells (baculovirus), cell lysate
The assay is described as follows: PDGF receptor tyrosine kinase assay. The following applies: for IC50: read-out: Inhibition of Protein Tyrosine Kinases, PDGF, IC50; for inhibition at 50 µM: read-out: Inhibition of Protein Tyrosine Kinases, PDGF, % Inhibition. The text has this: (§3) PDGF and FGF Receptor Tyrosine Kinase Assays
(§4) Full length cDNAs for the mouse PDGF-β and human FGF-1 (flg) receptor tyrosine kinases were obtained from J. Escobedo and prepared as described in J. Biol. Chem., 262:1482-1487 (1991), and PCR primers were designed to amplify a fragment of DNA that codes for the intracellular tyrosine kinase domain. The fragment was melded into a baculovirus vector, cotransfected with AcMNPV DNA, and the recombinant virus isolated. SF9 insect cells were infected with the virus to overexpress the protein, and the cell lysate was used for the assay. […] Briefly, to each well was added 82.5 μL of incubation buffer containing 25 mM Hepes (pH 7.0), 150 mM NaCl, 0.1% Triton X-100, 0.2 mM PMSF, 0.2 mM Na3 VO4, 10 mM MnCl2, and 750 μg/mL of Poly (4:1) glutamate-tyrosine followed by 2.5 μL of inhibitor and 5 μL of enzyme lysate (7.5 μg/μL FGF-TK or 6.0 μg/μL PDGF-TK) to initiate the reaction. Following a 10 minute incubation at 25° C., 10 μL of γ^32 P-ATP (0.4 μCi plus 50 μM ATP) was added to each well and samples were incubated for an additional 10 minutes at 25° C. The reaction was terminated by the addition of 100 μL of 30% trichloroacetic acid (TCA) containing 20 mM sodium pyrophosphate and precipitation of material onto glass fiber filter mats (Wallac). […] Nonspecific activity was defined as radioactivity retained on the filters following incubation of samples with buffer alone (no enzyme). Specific enzymatic activity was defined as total activity (enzyme plus buffer) minus nonspecific activity.

In assay [3] the target is T2, human FGF-1 (flg) receptor tyrosine kinase (Homo sapiens, UniProt P11362).
T2 construct: a fragment of DNA that codes for the intracellular tyrosine kinase domain; made in house; host or cells: Sf9 insect cells (baculovirus), cell lysate
The assay can be described thus: FGF receptor tyrosine kinase assay. The settings on record: for inhibition at 50 µM: read-out: Inhibition of Protein Tyrosine Kinases, FGF, % Inhibition; for IC50: read-out: Inhibition of Protein Tyrosine Kinases, FGF, IC50.
Text: as §3, §4

Assay [4] deals with T3, C-src kinase (Homo sapiens, UniProt P12931).
T3 construct: made in house; host or cells: baculovirus-infected insect cells
The assay can be described thus: C-src kinase assay. The settings on record: for inhibition at 50 µM: read-out: Inhibition of Protein Tyrosine Kinases, C-src, % Inhibition; for IC50: read-out: Inhibition of Protein Tyrosine Kinases, C-src, IC50. On the procedure: as §1
as §2, with “Insect cell lysate containing either the c-src or v-src protein is incubated with these beads for 3-4 hours at 4° C. with rotation.” left out

T1 sequence (P05622 599-961 limits assumed): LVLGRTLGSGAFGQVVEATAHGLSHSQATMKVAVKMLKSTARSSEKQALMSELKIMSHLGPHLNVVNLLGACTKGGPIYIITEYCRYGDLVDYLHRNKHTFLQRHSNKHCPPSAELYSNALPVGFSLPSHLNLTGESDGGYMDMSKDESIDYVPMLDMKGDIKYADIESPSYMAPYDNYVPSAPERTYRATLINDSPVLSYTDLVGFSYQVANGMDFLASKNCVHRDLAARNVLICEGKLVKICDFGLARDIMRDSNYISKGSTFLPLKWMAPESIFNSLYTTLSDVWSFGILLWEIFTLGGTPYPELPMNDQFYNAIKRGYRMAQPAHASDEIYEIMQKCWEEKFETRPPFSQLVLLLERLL
T3 sequence (P12931 whole entry): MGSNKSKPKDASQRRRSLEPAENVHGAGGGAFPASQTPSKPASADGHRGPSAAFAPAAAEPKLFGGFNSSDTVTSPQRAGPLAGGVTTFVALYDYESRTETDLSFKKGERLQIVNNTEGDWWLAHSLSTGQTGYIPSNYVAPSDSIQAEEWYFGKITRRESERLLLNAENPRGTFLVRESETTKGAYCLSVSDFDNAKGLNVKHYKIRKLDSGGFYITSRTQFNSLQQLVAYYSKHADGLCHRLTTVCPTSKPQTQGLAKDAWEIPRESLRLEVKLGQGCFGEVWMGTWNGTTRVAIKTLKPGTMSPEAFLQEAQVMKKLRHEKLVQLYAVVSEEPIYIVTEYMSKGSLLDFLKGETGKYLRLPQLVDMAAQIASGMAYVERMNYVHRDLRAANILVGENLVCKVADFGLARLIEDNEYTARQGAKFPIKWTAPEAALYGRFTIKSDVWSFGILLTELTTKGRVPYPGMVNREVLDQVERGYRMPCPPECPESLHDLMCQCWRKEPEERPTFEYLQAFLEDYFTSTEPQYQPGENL
T2 sequence (P11362 478-767 limits assumed): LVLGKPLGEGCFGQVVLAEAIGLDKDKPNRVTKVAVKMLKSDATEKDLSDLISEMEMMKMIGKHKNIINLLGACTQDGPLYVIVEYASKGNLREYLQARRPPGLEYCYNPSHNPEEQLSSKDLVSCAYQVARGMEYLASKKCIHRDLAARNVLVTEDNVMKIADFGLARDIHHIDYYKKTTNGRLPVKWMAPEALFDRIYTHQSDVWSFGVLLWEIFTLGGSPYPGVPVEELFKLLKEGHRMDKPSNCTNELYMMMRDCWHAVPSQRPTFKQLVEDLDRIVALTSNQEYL

What is called IC50 is the concentration that gives 50% inhibition. In general, inhibition refers to the drop in the measured response relative to a control, in per cent. Turning to `Nc1ncc2cc(-c3ccccn3)c(N)nc2n1` [Example 111, 6-Pyridin-2-yl-pyrido[2,3-d]pyrimidine-2,7-diamine], in assay [1], the “Inhibition of Protein Tyrosine Kinases, V-src, % Inhibition” value (from here on “Inhibition … % Inhibition”) is reported as -26.4%. Besides, in assay [2], the IC50 was determined as 23300 nM. The figures for the inhibition at 50 µM in assay [3] and in assay [4] were 47.7% and 15.7%, respectively.

Regarding `CNc1nc2nc(N)ncc2cc1-c1ccc(OC)cc1` [Example 13, 6-(4-Methoxyphenyl)-N^7-methyl-pyrido[2,3-d]pyrimidine-2,7-diamine], the “Inhibition … % Inhibition” value in assay [1] is given as 21.2%. The figures for the inhibition at 50 µM in assay [2] and in assay [4] were 18.2% and 15.9%, respectively. The 50% inhibitory concentration (IC50) in assay [3] stood at 30300 nM.

Regarding `Nc1ncc2cc(-c3cccnc3)c(N)nc2n1` [Example 107, 6-Pyridin-3-yl-pyrido[2,3-d]pyrimidine-2,7-diamine], the “Inhibition … % Inhibition” value in assay [1] was found to be 1.4%. The inhibition at 50 µM in assay [2] was found to be 20.5%; in assay [3] it was 37.2%; in assay [4], 37%.

For `Nc1ncc2cc(-c3ccccc3)c(N)nc2n1` [Example 81, 6-Phenyl-pyrido[2,3-d]pyrimidine-2,7-diamine], in assay [1], the “Inhibition … % Inhibition” value is -20.3%. In addition, the inhibition at 50 µM in assay [4] amounted to 67.5%.

In the case of `CN1CCN(CCCNc2ncc3cc(-c4c(Cl)cccc4Cl)c(N)nc3n2)CC1` [Example 36, N^2-[3-(4-methyl-piperazin-1-yl)-propyl]-6-(2,6-dichlorophenyl)-pyrido[2,3-d]pyrimidine-2,7-diamine], the IC50 in assay [2] turned out to be 22900 nM; in assay [3], 523 nM; in assay [4], 184 nM.

In the case of `CC(C)(C)NC(=O)Nc1nc2nc(N)ncc2cc1-c1ccccc1` [Example 82, 1-(2-Amino-6-phenyl-pyrido[2,3-d]pyrimidin-7-yl)-3-tert-butyl-urea], the IC50 in assay [2] was 4670 nM; in assay [3], 3710 nM. Besides, the inhibition at 50 µM in assay [4] was determined as 77.6%.

For `Nc1nc2nc(NCCCN3CCOCC3)ncc2cc1-c1c(Cl)cccc1Cl` [Example 58, 6-(2,6-Dichlorophenyl)-N^2-(3-morpholin-4-yl-propyl)-pyrido[2,3-d]pyrimidine-2,7-diamine], the IC50 in assay [2] is 19000 nM; in assay [3], 3460 nM. For the same molecule, the inhibition at 50 µM in assay [4] worked out at 110%.

Take `CC(C)(C)NC(=O)Nc1nc2nc(N)ncc2cc1-c1c(Cl)cccc1Br` [Example 105, 1-[2-Amino-6-(2-bromo-6-chloro-phenyl)-pyrido[2,3-d]pyrimidin-7-yl]-3-tert-butyl-urea]: the concentration for half-maximal inhibition (IC50) in assay [2] came out at 618 nM; in assay [3], 181 nM; in assay [4], 214 nM.

In the case of `CN1CCN(CCCNc2ncc3cc(-c4c(Cl)cccc4Cl)c(NC(=O)Nc4ccc(Br)cc4)nc3n2)CC1` [Example 44, 1-(4-Bromo-phenyl)-3-{6-(2,6-dichlorophenyl)-2-[3-(4-methyl-piperazin-1-yl)-propylamino]-pyrido[2,3-d]pyrimidin-7-yl}-urea], the values for the IC50 in assay [2], in assay [3] and in assay [4] were 1550 nM, 196 nM and 23 nM, respectively.

As for `Nc1ncc2cc(-c3c(Cl)cccc3Cl)c(N)nc2n1` [Example 1, 2,7-Diamino-6-(2,6-dichlorophenyl)-pyrido[2,3-d]pyrimidine], the “Inhibition … % Inhibition” value in assay [1] was -2.4%. Besides, the concentration for half-maximal inhibition (IC50) in assay [3] amounted to 2990 nM.

Regarding `Nc1ncc2cc(-c3c(Cl)ccc(Cl)c3Cl)c(N)nc2n1` [Example 85, 6-(2,3,6-Trichloro-phenyl)-pyrido[2,3-d]pyrimidine-2,7-diamine], the 50% inhibitory concentration (IC50) was 7630 nM in assay [2], 129 nM in assay [3] and 4460 nM in assay [4].

With `CC(C)NC(=O)Nc1nc2nc(NCCCN3CCN(C)CC3)ncc2cc1-c1c(Cl)cccc1Cl` [Example 38], the IC50 came out at 360 nM in assay [2], 47 nM in assay [3] and 19 nM in assay [4].

On to `CCN(CC)CCCNc1ncc2cc(-c3c(Cl)cccc3Cl)c(N=CN(C)C)nc2n1` [Example 78, N'-[6-(2,6-Dichlorophenyl)-2-{3-(diethylamino)propyl-amino}pyrido[2,3-d]pyrimidin-7-yl]-N,N-dimethylformamidine], for which the half-maximal inhibitory concentration (IC50) in assay [2] amounted to 32900 nM; in assay [3], 4010 nM; in assay [4], 3990 nM.

For the molecule `CC(C)(C)NC(=O)Nc1nc2nc(N)ncc2cc1-c1c(Cl)ccc(Cl)c1Cl` [Example 86, 1-[2-Amino-6-(2,3,6-trichloro-phenyl)-pyrido[2,3-d]pyrimidin-7-yl]-3-tert-butyl-urea], the IC50 turned out to be 2960 nM in assay [2], 114 nM in assay [3] and 1410 nM in assay [4].

In the case of `Cc1cc(C)c(C)c(-c2cc3cnc(NCCCN4CCN(C)CC4)nc3nc2N)c1C` [Example 120, N^2-[3-(4-Methyl-piperazin-1-yl)-propyl]-6-(2,3,5,6-tetramethyl-phenyl)-pyrido[2,3-d]pyrimidine-2,7-diamine], the concentration for half-maximal inhibition (IC50) in assay [2] was 3840 nM; in assay [3], 3270 nM; in assay [4] it was 42700 nM.

In the case of `COc1cccc(OC)c1-c1cc2cnc(N)nc2nc1N` [Example 64, 6-(2,6-Dimethoxy-phenyl)-pyrido[2,3-d]pyrimidine-2,7-diamine], the inhibition at 50 µM turned out to be 13% in assay [2], 23.8% in assay [3] and 0% in assay [4].

On to `CCCNC(=O)Nc1nc2nc(N)ncc2cc1-c1c(Cl)cccc1Cl` [Example 26, 1-[2-Amino-6-(2,6-dichlorophenyl)-pyrido[2,3-d]pyrimidin-7-yl]-3-propyl-ure], for which the IC50 in assay [2] worked out at 1080 nM; in assay [3] it was 116 nM; in assay [4], 39.5 nM.

For `CCCS(=O)(=O)Nc1nc2nc(N)ncc2cc1-c1c(Cl)cccc1Cl` [Example 106, Propane-1-sulfonic acid [2-amino-6-(2,6-dichlorophenyl)-pyrido[2,3-d]pyrimidin-7-yl]-amide], the figures for the IC50 in assay [2], in assay [3] and in assay [4] were 4800 nM, 361 nM and 236 nM, respectively.
